Reference: patent US20230277508A1, “USE OF COMPOUND AS CYP2E1 INHIBITOR” (SHANGHAI LING XI BIOTECHNOLOGY DEVELOPMENT CO., LTD., priority 2020, published 2023)

Legend:
[1] = tested on: DEN-induced rat liver damage; assay: DEN-induced rat liver damage model; assay type: in vivo, SD rat; conditions: plasma, vs model group
Description: Experimental method: An SD rat liver damage model was constructed through intermittent intraperitoneal injection of DEN. A model group was injected intraperitoneally with DEN at 50 mg/kg twice a week in the first 4 weeks and then once a week in the 5th to 8th weeks. An SMI0 intervention group, which was injected with DEN at the amount and the way the same as that in the model group, was divided into SMI0+DEN low-dose and high-dose groups and an SMI0 high-dose continuous administration group, where the SMI0+DEN low-dose and high-dose groups were intragastrically administered with the compound SMI0 at 30 mg/kg and 150 mg/kg 5 min before DEN administration each time, respectively; and the SMI0 high-dose continuous administration group was intragastrically administered with the compound SMI0 at 150 mg/kg every day from the 1st week to the 8th week. At the end of molding, blood was collected from the orbit, and plasma liver function indexes of rats were determined by an automatic biochemical analyzer (model group, n=10 rats; SMI0 compound low-dose group, n=21 rats; (150 mg/kg)^a, SMI0 compound+DEN high-dose group, n=28 rats; and (150 mg/kg)^b, SMI0 compound high-dose continuous administration group, n=24 rats].

[2] = tested on: A549 lung cancer cells; assay: Direct effect on proliferation of A549 lung cancer cells (CCK8); assay type: cell-based; conditions: up to 100 μmol/L, 24 h
Description: Experimental method: Lewis lung cancer cells and A549 lung cancer cells in a logarithmic growth phase each were selected and inoculated into a 96-well plate at a concentration of 1*10^5 cells/mL, then 100 μL of a basic medium including SMI0 at different concentrations (0 μmol/L, 0.16 μmol/L, 0.8 μmol/L, 4 μmol/L, 20 μmol/L, and 100 μmol/L) was added to each well, and 24 h later, 10 μL of a CCK8 reagent was added to each well; and the cells were further cultivated for 2 h, and an absorbance OD value of each well was determined at 450 nm by a microplate reader. 3 replicates were set for each well, and an average was taken. The proliferation activity was calculated based on the OD value.

[3] = tested on: ovarian cancer ID-8 cell line in situ transplanted tumor; assay: Mouse ovarian cancer in situ transplanted tumor model (ID-8); assay type: in vivo, C57/6 mouse; conditions: as high as; SMI0 30 mg/kg ig daily, 60-day modeling
Description: Experimental method: A female C57/6 mouse ovarian cancer in situ transplanted tumor model was constructed with a murine ovarian cancer ID-8 cell line at a cell concentration of 1×10^6. A model group and an SMI0 intervention group were set for the experiment. The intervention group was intragastrically administered with the SMI0 compound at 30 mg/kg every day from three days before modeling to the end of the 60-day modeling (model group, n=15; and SMI0 compound (30 mg/kg) group, n=12). At the end of the experiment, blood was collected from the orbit, a body weight was measured, then the mice each were sacrificed, and ovary tissues and tumor tissues were collected. Ovary tissue specimens were subjected to HE staining, and then the ovary tumor tissue and tumorigenesis of mice in each group were observed.

[4] = tested on: collagen-induced rheumatoid arthritis in rats; assay: Collagen-induced rat rheumatoid arthritis model; assay type: in vivo, SD rat; conditions: SMI0 75, 37.5 and 18.75 mg/kg ig once daily, day 21, vs model group
Description: Experimental method: A collagen emulsion was used to construct an SD rat rheumatoid arthritis model. 50 rats successfully modeled were randomly divided into five groups: model group (normal saline (NS), 0.5 mL/kg, i.g.); positive control group (celecoxib, 5 mg/kg, i.g.); SMI0 low-dose group (18.75 mg/kg, i.g.); SMI0 medium-dose group (37.5 mg/kg, i.g.); and SMI0 high-dose group (75 mg/kg, i.g.). The rats each were administered once every day starting from the first day after successful modeling. A thickness of each of the left and right hindfeet and the left and right forefeet of rats was measured every day by a vernier caliper, and a volume of each of the left and right hindfeet of rats was measured by a rat foot swelling measuring instrument (which was measured every 12 h in the first 3 days). A foot swelling rate of each rat was calculated according to a change of a hindfoot volume of the rat relative to a hindfoot volume of the rat before the modeling at each time point, and a difference in foot swelling rate between groups of rats was analyzed. After the successful modeling, blood was collected from the orbit on day 7; rats were sacrificed on day 20, blood was collected, and serum was isolated; and tissues such as ankles, toe joints, spleens, and livers were collected. […]

[5] = tested on: LPS-induced sepsis in mice; assay: LPS-induced mouse sepsis model; assay type: in vivo; conditions: vs model group
Description: Mice: A mouse sepsis model was constructed through single intraperitoneal injection of LPS (15 mg/kg). 30 min before LPS administration, mice in the model group were administered with NS (0.5 mL/kg, i.g.), mice in the positive control group were administered with celecoxib (5 mg/kg, i.g.), and mice in the CYP2E1 inhibition group were administered with the compound SMI0 (90 mg/kg, i.g.). A body temperature of each mouse was measured and recorded at 6 h, 12 h, and 24 h after LPS administration, and the body temperature was measured […] in total throughout the experimental process. The animals were sacrificed at 24 h, blood samples were collected, and renal and cardiac function-associated indexes were determined (control group, n=8 mice; model group, n=8 mice; celecoxib group, n=8 mice; and SMI0 compound group, n=10 mice).

[6] = tested on: focal cerebral ischemia-reperfusion injury in rats; assay: Focal CIRI rat model with MCAO; assay type: in vivo
Source text: Experimental method: A focal CTRI rat model with middle cerebral artery occlusion (MCAO) was constructed by a modified Zea-longa suture-occluded method.

[7] = SMI0 intervention group, 8 weeks

With `CC(=O)c1scnc1C` [SMI0] the “albumin (ALB2) level” value ([1]; SMI0 intervention group (30, 150 mg/kg ig before DEN; 150 mg/kg daily), 8 weeks) was “significantly increased”, the “alanine aminotransferase (ALTL) level” value [1, 7] was “significantly reduced” and the “alkaline phosphatase (ALP) (ALP2S) level” value [1, 7] was “significantly reduced”. The “cholinesterase (CHE2) level” value [1, 7] was “significantly increased”, the “direct bilirubin (BILD2) level” value [1, 7] was “significantly reduced” and the “glutamyl transpeptidase (GGTI2) level” value [1, 7] was “significantly reduced”. For the same compound, the “total bilirubin (BILT3) level” value [1, 7] was “significantly reduced”, the TP2 level ([1]; SMI0 low-dose group (30 mg/kg ig)) was “significantly increased” and the “effect on the proliferation of A549 lung cancer cells” value [2] was “no significant inhibitory effect”. The “ascites weight inhibition rate” value [3] was 76.40%, the “tumor proliferation inhibition rate” value [3] was 63.14% and the foot swelling degrees [4] was “significantly reduced”. For the same compound, the “decrease in body temperature in the LPS-induced sepsis mouse model” value ([5]; SMI0 90 mg/kg ig 30 min before LPS 15 mg/kg ip, 6 h, 12 h, 24 h) was “avoided”, the “levels of renal and cardiac function-associated indexes (urea nitrogen, creatinine, CK, LDH)” value ([5]; serum at 24 h, SMI0 90 mg/kg ig) was “significantly reduced” and the “inhibition rate on the cerebral edema volume” value ([6]; SMI0 150 mg/kg) was 34.39%. For the same compound, the “inhibition rate on the cerebral infarction volume” value ([6]; SMI0 150 mg/kg) was 36.06%, the cerebral edema volume ([6]; SMI0 150 mg/kg ig 10 min before reperfusion, 24 h reperfusion, model group 19.25%) was 12.63% and the cerebral infarction volume ([6]; SMI0 150 mg/kg ig 10 min before reperfusion, 24 h reperfusion, model group 51.03%) was 32.62%.
